Data on 16 compounds can be found in PubChem BioAssay (NCI).

“And” between values parts separate entries of the source, which are not always exact repeats. Identical values can stand only once.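 Values below derive from 48-hour exposures of cells grown in 96-well plates, with endpoints linearly interpolated between the two concentrations bracketing the appropriate inhibition level. At the GI50, growth is halved. At the TGI there is no net growth.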 Where a SMILES comes first, the peptide text is derived from it. Bridges are numbered along the chain shown (N, C = ends).

Common to all, as to assay: NCI anticancer screen, dose series, 48 h
Assay [1] relates to ACHN renal.
In assay [2] the test system is SF-268 CNS.
The subject of assay [3] is SN12C renal.
Assay [4] relates to COLO 205 colon.
Assay [5] relates to PC-3 prostate.
Assay [6] deals with OVCAR-8 ovarian.
Assay [7] concerns UACC-62 melanoma.
Assay [8] has as its system T-47D breast.
In assay [9] the test system is NCI-H23 lung.
For assay [10], the system named is SF-539 CNS.

Consider `CC(C)c1ccc(C(c2c(O)c3ccccc3oc2=O)c2c(O)c3ccccc3oc2=O)cc1`, for which the TGI in [1] turned out to be 86.7 µM; in assay [2] it was 66.6 µM; in assay [3], 48.6 µM; in assay [4], 34.2 µM; in assay [5] it was 37.9 µM; in assay [6], 42.5 µM. In addition, the TGI in assay [7] is 31.2 µM; in assay [8], greater than 100 µM; in [9], 51.6 µM; in assay [10], 39.4 µM.

Take `COc1cc2c(cc1OC)-c1c(c3ccc([N+](=O)[O-])cc3c(=O)n1CCCN=[N+]=[N-])C2=O`: the GI50 in assay [1] was 19.4 µM; in assay [2] it was 41.7 µM; in assay [3] it was 46.7 µM; in assay [4], greater than 100 µM; in assay [6] it was 40.9 µM; in [7], 51.9 µM. Moreover, the values for the GI50 in assay [8], in assay [9] and in [10] were greater than 100 µM, 40.5 µM and 36.4 µM, respectively. In addition, the TGI in assay [1], in assay [2], in assay [3], in assay [4], in assay [6] and in assay [7] was greater than 100 µM each time. The TGI in assay [8], in [9] and in assay [10] was greater than 100 µM throughout.

For the compound `CCN(CC)CCNc1ccc(N=Nc2cnc3ccccc3c2)c2ccccc12`, the GI50 in assay [1] is 1.61 µM; in assay [2] it was 1.74 µM; in [3], 1.64 µM; in [4] it was 1.61 µM; in [5] it was 1.28 µM; in assay [6], 2.09 µM. Also, the GI50 in assay [7] is 1.7 µM; in assay [8], 1.81 µM; in assay [9] it was 1.6 µM; in assay [10], 1.67 µM. The TGI came out at 3.15 µM in assay [1]; 3.48 µM in assay [2]; 3.16 µM in assay [3]; 2.98 µM in assay [4]; 2.6 µM in assay [5]; 4.19 µM in assay [6]. Besides, the TGI was determined as 3.21 µM in [7], 4.08 µM in assay [8], 3.07 µM in [9] and 3.07 µM in assay [10].

Turning to `CCCCCCCCCCCCSC1=CC(=O)C=CC1=O`, the GI50 in assay [1] was 9.13 µM; in [2], 2.24 µM; in assay [3], 3.24 µM; in assay [4], 20.9 µM; in assay [5], 0.672 µM; in [6], 1.79 µM. In addition, the GI50 was 7.59 µM in assay [7], 0.893 µM in [8], 5.69 µM in assay [9] and 1.23 µM in [10]. Moreover, the TGI was greater than 42.4 µM in assay [1]; 10.4 µM in assay [2]; 24.7 µM in assay [3]; greater than 36.2 µM in assay [4]; 4.21 µM in assay [5]; 32.1 µM in [6]. Further, the TGI is greater than 36.9 µM in [7], 3.58 µM in assay [8], 21.6 µM in assay [9] and 3.5 µM in assay [10].

Take `O=C(C(=O)c1cccnc1)c1cccnc1`: the GI50 in assay [1], in [2], in assay [3], in assay [4], in assay [5] and in [6] was greater than 100 µM throughout. Besides, the GI50 in assay [7], in assay [8], in assay [9] and in assay [10] was greater than 100 µM in each case. The TGI in assay [1], in [2], in [3], in [4], in assay [5] and in [6] was greater than 100 µM throughout. Further, the TGI in [7], in assay [8], in assay [9] and in [10] was greater than 100 µM each time.

`CN1CCN(C(=O)[C@@]2(C)CC[C@]3(C)CC[C@]4(C)C(=CC[C@@H]5[C@@]6(C)CC[C@H](OC(=O)c7cccnc7)C(C)(C)[C@@H]6CC[C@]54C)[C@@H]3C2)CC1`: the GI50 in assay [1] was 1.88 µM; in [2], 1.84 µM; in assay [3], 1.56 µM; in [4] it was 1.83 µM; in assay [5], 1.61 µM; in assay [6], 2.06 µM. The GI50 was 1.84 µM in [7], 3.12 µM in [8], 1.62 µM in assay [9] and 1.6 µM in [10]. The TGI in assay [1] was found to be 3.39 µM; in assay [2], 3.85 µM; in [3], 3.15 µM; in [4], 3.94 µM; in assay [5], 3.54 µM; in assay [6] it was 4.3 µM. Further, the TGI in assay [7] is 3.46 µM; in [8], 17 µM; in assay [9], 3.39 µM; in assay [10], 3.06 µM.

Regarding `O=C1c2c(c3c4ccccc4n(CCCCCCN4CCOCC4)c3c3[nH]c4ccccc4c23)C(=O)N1O`, the GI50 is 4.14 µM in assay [1]; 15.8 µM in assay [2]; 6.86 µM in assay [3]; 4.74 µM in assay [4]; 12.1 µM in assay [5]; 2.44 µM in [6]. Further, the GI50 was 1.91 µM in [7], 18.7 µM in [8], 15.8 µM in assay [9] and 1.9 µM in assay [10]. Further, the TGI was 39.4 µM in [2]; 26.4 µM in [3]; 21.9 µM in assay [4]; greater than 57 µM in assay [5]; 9.39 µM in [6]; 4.62 µM in assay [7]. For the same compound, the TGI in [8] was greater than 94.6 µM; in assay [9] it was 45.9 µM; in assay [10], 4.03 µM.

With `NS(=O)(=O)c1ccc(-n2nc(-c3ccccc3)cc2-c2cc(O)ccc2O)cc1`, the GI50 in assay [1] was 89.8 µM; in assay [2] it was greater than 100 µM; in [3], greater than 100 µM; in assay [4], greater than 100 µM; in assay [5], 77.6 µM; in [6], greater than 100 µM. Further, the GI50 in assay [7] is 44.9 µM; in [8], greater than 100 µM; in assay [9] it was 77.1 µM. Further, the TGI in [1], in [2], in assay [3], in assay [4], in [5] and in [6] was greater than 100 µM each time. Moreover, the TGI in assay [7], in assay [8] and in assay [9] was greater than 100 µM each time.

Consider `O=c1[nH][nH]c(=O)c2c(O)c(-c3ccccc3)ncc12`, for which the GI50 was 182 µM in [1]; 35 µM and 71.3 µM in [2]; 62.6 µM and 160 µM in assay [3]; 41.6 µM and 130 µM in [4]; 44.5 µM and 143 µM in assay [5]; 37 µM and 64.6 µM in assay [6]. Besides, the GI50 was 34.2 µM and 73.5 µM in [7]; 27.6 µM and 60.5 µM in [8]; 75.9 µM and 194 µM in assay [9]; 32.6 µM in assay [10]. Besides, the TGI in [1] was 845 µM; in [2], greater than 1000 µM; in [3], 623 µM; in [4] it was 399 µM; in assay [5] it was 662 µM; in assay [6], 649 µM. Further, the TGI is 420 µM in assay [7]; 95.5 µM and 843 µM in [8]; 827 µM in assay [9]; 95.1 µM in [10].

For the compound `C#Cc1cccc(Nc2ncnc3ccc(-c4cnc(N)nc4)cc23)c1`, the GI50 in assay [1] was 0.542 µM; in assay [2], 1.79 µM; in [3] it was 1.81 µM; in assay [4] it was 2.99 µM; in assay [5] it was 1.62 µM; in assay [6], 3.69 µM. In addition, the GI50 in [7] is 1.83 µM; in assay [8], 0.664 µM; in [9], 3.67 µM; in assay [10] it was 2.81 µM. Besides, the TGI in assay [1] stood at 10.3 µM; in [2] it was 20.6 µM; in assay [3], 12.7 µM; in assay [4], 13.8 µM; in assay [5], 11.3 µM; in assay [6], 33.1 µM. The TGI in assay [7] was 11.4 µM; in [8], 4.62 µM; in assay [9], greater than 100 µM; in assay [10], 11.9 µM.

With `CCC(C)C1NC(=O)C(CC(C)C)NC(=O)C(C(C)C)NC(=O)C2CSSCC(NC1=O)C(=O)N2` (configuration not stated) (cyclo(CCVLI); disulfide 1-2; configuration not given here), the TGI in assay [1] was 1.82 µM; in assay [3], 0.351 µM; in assay [4], 0.223 µM; in [5] it was 0.329 µM; in [6], 0.491 µM; in [7] it was 0.228 µM. Moreover, the figures for the TGI in [8], in assay [9] and in assay [10] were 0.182 µM, 0.277 µM and 0.316 µM, respectively.

Regarding `Cc1cc(C(=O)CC(Cl)=C(Cl)Cl)c(Cl)cc1Cl`, the GI50 in assay [1] is 18.1 µM; in assay [2], 20.9 µM; in assay [3] it was 19.5 µM; in assay [4], 27.7 µM; in assay [6] it was 21.7 µM; in assay [7], 18.4 µM. Moreover, the GI50 in assay [8] is 19.9 µM; in assay [9], 18.6 µM; in assay [10] it was 13.1 µM. Further, the TGI was determined as 39.4 µM in [1]; 55.8 µM in assay [2]; 44.7 µM in [3]; 86.1 µM in assay [4]; 46.3 µM in assay [6]; 39.3 µM in [7]. Moreover, the figures for the TGI in assay [8], in assay [9] and in assay [10] were 44.2 µM, 37.9 µM and 29.9 µM, respectively.

As to `O=C(O)CC(S)C(=O)O.[Li+].[Sb]` (configuration not stated), the GI50 in [1], in assay [2], in assay [3], in assay [5], in assay [6] and in assay [7] was greater than 100 µM throughout. The GI50 in [8] and in assay [9] was greater than 100 µM each time. The TGI in assay [1], in assay [2], in assay [3], in assay [5], in [6] and in assay [7] was greater than 100 µM in each case. Moreover, the TGI in assay [8] and in [9] was greater than 100 µM throughout.

Turning to `CCCCCCCCCCCCCC(=O)NO`, the TGI was 39.3 µM in [1]; 26.9 µM in [2]; 38.9 µM in [3]; 20.1 µM in assay [4]; 28.6 µM in [5]; 50.7 µM in assay [6]. Further, the TGI in [7] worked out at 11.5 µM; in assay [9], 31.1 µM; in assay [10], 37.9 µM.

For `O=C1NC(c2cccc3ccccc23)Nc2ccccc21` (configuration not stated), the GI50 in [1] is 0.0383 µM; in [2], 0.0485 µM; in assay [3], 0.0198 µM; in assay [4], 0.027 µM; in [5], 0.0263 µM; in assay [6] it was 0.0783 µM. Further, the figures for the GI50 in assay [9] and in assay [10] were 0.0262 µM and 0.0105 µM, respectively. In addition, the TGI in assay [1] was greater than 54.7 µM; in assay [2], greater than 100 µM; in [3], greater than 100 µM; in assay [4] it was 0.0954 µM; in assay [5] it was 0.213 µM; in assay [6] it was 12 µM. Further, the TGI in assay [7] is greater than 100 µM; in assay [9] it was 24.8 µM; in [10] it was 0.0329 µM and 0.165 µM.

With `COc1cc(C(=O)c2cnc(-c3ccc4cc[nH]c4c3)[nH]2)cc(OC)c1OC`, the GI50 in assay [1] was 0.0973 µM; in [2], 0.0808 µM; in [3] it was 0.066 µM; in [4], 0.0277 µM; in [5] it was 0.0286 µM; in assay [6] it was 0.0484 µM. Also, the GI50 is 0.0244 µM in [7], 0.0575 µM in [9] and 0.0214 µM in assay [10]. Besides, the TGI was found to be 6.11 µM in [1]; 7.19 µM in [2]; 14.7 µM in [3]; 0.105 µM in assay [4]; 15.1 µM in assay [5]; 11.5 µM in [6]. Besides, the TGI in assay [7] stood at 13.8 µM; in [9], 21 µM; in assay [10], 0.0623 µM.
